Laboratory results as given in article PMC13400319 (Chemmedchem, 2026).
Where two headings read alike, the source gives them in different places.

Biological target: T1, Aβ42 (Homo sapiens, UniProt P05067)
T1 construct: amyloid beta (1–42) (Aβ42) self‐aggregation; purchased GenicBio Limited (Shanghai, China)
Assay: Inhibition of Aβ42 self-aggregation (Thioflavin T fluorescence)
Type: biochemical
Settings: read-out: Inhibition of Aβ42 self-aggregation, %
Protocol: Inhibition of β-amyloid (1– 42) (Aβ42) self-aggregation
Inhibition of Aβ42 self-aggregation by test compounds was studied using the thioflavin T (ThT)
fluorescence method [8- 10] with minor modifications as described in detail in [11]. Lyophilized
HFIP- pretreated Aβ42 (GenicBio Limited (Shanghai, China), 1 mg) was dissolved in DMSO to
obtain a stable 500 μM solution.
pH 8.0 were incubated for 24 h at 37°C in the absence or presence of 100 μM test compounds.
Myricetin in the same concentration was used as reference. After incubation, 5 μM ThT in 50
mM glycine-NaOH buffer pH 8.5 was added, and the fluorescence was measured at 440 nm
Each assay was run in triplicate. The degree of
inhibition of Aβ42 self-aggregation by the studied compounds (%) was calculated by the
of inhibitor, respectively, after subtracting the fluorescence of respective blanks.

T1 sequence (P05067 672-713 limits assumed): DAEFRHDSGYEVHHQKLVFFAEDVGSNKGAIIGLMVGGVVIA

| SMILES | inhibition at 100 µM (Aβ42 50 µM, compound 100 µM) | inhibition at 100 µM |
| --- | --- | --- |
| Nc1c2c(nc3c1CCC3)CCCC2 [Amiridine, amiridine] | 6.4 ± 0.5% | – |
| O=c1c(O)c(-c2cc(O)c(O)c(O)c2)oc2cc(O)cc(O)c12 [Myricetin] | – | 74.7 ± 5.2% |
